In US20060069132A1, “Azolecarboxamide herbicides” (priority 2004, published 2006):

Tests used:
velvetleaf [1] = assay: Test B pre-/postemergence herbicide test; assay type: in vivo, Abutilon theophrasti
In short: (§1)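 Flooded paddy rice and barnyardgrass were treated at the 2-leaf stage; upland plantings received compound either on sown seed or on 1- to 4-leaf seedlings. All were kept 13–15 days in a greenhouse and scored visually, 0–100, relative to untreated plants.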

Surinam grass = assay: Test B pre-/postemergence herbicide test; assay type: in vivo, Urochloa decumbens
In short: as §1

corn = assay: Test B pre-/postemergence herbicide test; assay type: in vivo, Zea mays
In short: as §1

barnyardgrass [2] = assay: Test B pre-/postemergence herbicide test; assay type: in vivo, Echinochloa crus-galli
In short: (§2)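 Formulation: non-phytotoxic solvent mix with surfactant. Timing: preemergence on seed and postemergence on 2–18 cm plants, applied concurrently. Readout after 13–15 d greenhouse: visual 0–100 control rating against controls.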

lambsquarters = assay: Test B pre-/postemergence herbicide test; assay type: in vivo, Chenopodium album
In short: as §1

cocklebur = assay: Test B pre-/postemergence herbicide test; assay type: in vivo, Xanthium strumarium
In short: as §2

morningglory [3] = assay: Test B pre-/postemergence herbicide test; assay type: in vivo, Ipomoea coccinea
In short: as §2

large crabgrass [4] = assay: Test A pre-/postemergence herbicide test; assay type: in vivo, Digitaria sanguinalis
In short: (§3)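 Seeds sown in sandy loam received a preemergence directed soil spray of compound in non-phytotoxic solvent with surfactant; postemergence plants (2–10 cm, one- to two-leaf stage) were sprayed to runoff at the same time. After ~10 days in greenhouse, injury was rated visually versus untreated controls (0 = no effect, 100 = complete control).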

ducksalad = assay: Test B flooded paddy test; assay type: in vivo, Heteranthera limosa; conditions: 1000 g ai/ha, visual rating, scale 0 to 100 (0 no effect, 100 complete control), 13 to 15 days
In short: (§4)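 Scale 0–100: zero equals no visible effect, 100 complete control, judged by eye relative to controls. Timing: 13 to 15 days in greenhouse post-treatment. Growth stage at spraying: two leaves (paddy) or one to four leaves, 2–18 cm (postemergence).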

barnyardgrass [5] = assay: Test B flooded paddy test; assay type: in vivo, Echinochloa crus-galli; conditions: 1000 g ai/ha, visual rating, scale 0 to 100 (0 no effect, 100 complete control), 13 to 15 days
In short: as §4

giant foxtail [6] = assay: Test A pre-/postemergence herbicide test; assay type: in vivo, Setaria faberi
In short: as §3

giant foxtail [7] = assay: Test B pre-/postemergence herbicide test; assay type: in vivo, Setaria faberi
In short: as §1

morningglory [8] = assay: Test A pre-/postemergence herbicide test; assay type: in vivo, Ipomoea spp.
In short: as §3

wheat = assay: Test B postemergence herbicide test; assay type: in vivo, Triticum aestivum; parameters: key to Wheat plant response rating: 0 = no effect, 100 = complete control; conditions: scale 0 (no effect) to 100 (complete control)
In short: (§5)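 Each value is a visual 0–100 response rating taken against controls 13 to 15 days after treatment in the greenhouse. Plants received formulated chemical postemergence at the 1- to 4-leaf stage or, in flooded paddy, at the 2-leaf stage.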

wild oat = assay: Test B postemergence herbicide test; assay type: in vivo, Avena fatua; conditions: scale 0 (no effect) to 100 (complete control)
In short: as §5

rice [9] = assay: Test B flooded paddy test; assay type: in vivo, Oryza sativa; conditions: 1000 g ai/ha, visual rating, scale 0 to 100 (0 no effect, 100 complete control), 13 to 15 days
In short: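 After treating 2-leaf paddy plants or 2–18 cm postemergence plants (1 to 4 leaves) with formulated chemical, researchers kept them in a greenhouse for 13–15 days. Effects were judged visually versus controls: 0 indicates none, 100 total control.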

blackgrass = assay: Test B postemergence herbicide test; assay type: in vivo, Alopecurus myosuroides; conditions: scale 0 (no effect) to 100 (complete control)
In short: as §4

rice [10] = assay: Test B pre-/postemergence herbicide test; assay type: in vivo, Oryza sativa; conditions: preemergence
In short: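 Evaluation is visual, comparing treated with control plants on a scale where 0 means no effect and 100 means full control. Treatments were preemergence, or postemergence on seedlings 2–18 cm tall, and held 13–15 days in the greenhouse.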

[11] = tested on: small flower umbrella sedge; assay: Test B flooded paddy test; assay type: in vivo, Cyperus difformis; conditions: 1000 g ai/ha, visual rating, scale 0 to 100 (0 no effect, 100 complete control), 13 to 15 days
In short: as §4

barnyardgrass [12] = assay: Test A pre-/postemergence herbicide test; assay type: in vivo, Echinochloa crus-galli
In short: as §3

velvetleaf [13] = assay: Test A pre-/postemergence herbicide test; assay type: in vivo, Abutilon theophrasti
In short: as §3

large crabgrass [14] = assay: Test B pre-/postemergence herbicide test; assay type: in vivo, Digitaria sanguinalis
In short: as §1

pigweed = assay: Test B pre-/postemergence herbicide test; assay type: in vivo, Amaranthus retroflexus
In short: as §1

redroot pigweed = assay: Test A pre-/postemergence herbicide test; assay type: in vivo, Amaranthus retroflexus
In short: as §3

[15] = 500 g ai/ha, visual rating 0-100, 0 no effect, 100 complete control, preemergence
[16] = Postemergence, 500 g ai/ha, visual rating after 13 to 15 days, scale 0 (no effect) to 100 (complete control)
[17] = postemergence, 125 g ai/ha, visual rating, scale 0 (no effect) to 100 (complete control)
[18] = preemergence, 125 g ai/ha, 0 to 100 scale, 0 is no effect, 100 is complete control
[19] = Postemergence, 500 g ai/ha, 0 to 100 scale, 0 no effect, 100 complete control
[20] = Postemergence, 2000 g ai/ha, 0 to 100 scale, 0 no effect, 100 complete control
[21] = Preemergence, 500 g ai/ha, visual rating, 0 to 100 scale (0 no effect, 100 complete control)
[22] = Preemergence, 2000 g ai/ha, 0 to 100 scale, 0 no effect, 100 complete control
[23] = Postemergence, 500 g ai/ha, visual rating after 13 to 15 days
[24] = postemergence, 125 g ai/ha, visual rating

SMILES: CCn1nc(C(C)(C)C)cc1C(=O)Nc1cccc(C(=O)OC(C)C)c1C [Compound 92]
- Plant response rating, Velvetleaf (velvetleaf [1]; [15]): 0
- Plant response rating, Velvetleaf (velvetleaf [1]; [16]): 0
- Velvetleaf plant response rating (velvetleaf [1]; [17]): 0
- Plant response rating, Velvetleaf (velvetleaf [1]; [18]): 0
- Plant response rating, Surinam Grass (Surinam grass; [15]): 0
- Plant response rating, Surinam Grass (Surinam grass; [16]): 10
- Surinam Grass plant response rating (Surinam grass; [17]): 0
- Plant response rating, Surinam Grass (Surinam grass; [18]): 0
- Plant response rating, Corn (corn; [15]): 0
- Plant response rating, Corn (corn; [16]): 10
- Corn plant response rating (corn; [17]): 10
- Plant response rating, Corn (corn; [18]): 0
- Plant response rating, Barnyardgrass (barnyardgrass [2]; [15]): 0
- Plant response rating, Barnyardgrass (barnyardgrass [2]; [16]): 0
- Barnyardgrass plant response rating (barnyardgrass [2]; [17]): 0
- Plant response rating, Barnyardgrass (barnyardgrass [2]; [18]): 0
- Plant response rating, Lambsquarters (lambsquarters; [15]): 0
- Plant response rating, Lambsquarters (lambsquarters; [16]): 20
- Lambsquarters plant response rating (lambsquarters; [17]): 20
- Plant response rating, Lambsquarters (lambsquarters; [18]): 0
- Plant response rating, Cocklebur (cocklebur; [15]): 0
- Plant response rating, Cocklebur (cocklebur; [16]): 0
- Cocklebur plant response rating (cocklebur; [17]): 0
- Plant response rating, Cocklebur (cocklebur; [18]): 0
- Plant response rating, Morningglory (morningglory [3]; [15]): 0
- Plant response rating, Morningglory (morningglory [3]; [16]): 0
- Morningglory plant response rating (morningglory [3]; [17]): 0
- Plant response rating, Morningglory (morningglory [3]; [18]): 0
- Crabgrass, Large plant response rating (large crabgrass [4]; [19]): 0
- Plant response rating, Crabgrass, Large (large crabgrass [4]; [20]): 10
- Crabgrass, Large plant response rating (large crabgrass [4]; [21]): 0
- Crabgrass, Large plant response rating (large crabgrass [4]; [22]): 0
- Ducksalad plant response rating (ducksalad): 0
- Barnyardgrass plant response rating (barnyardgrass [5]): 0
- Foxtail, Giant plant response rating (giant foxtail [6]; [19]): 0
- Plant response rating, Foxtail, Giant (giant foxtail [6]; [20]): 0
- Foxtail, Giant plant response rating (giant foxtail [6]; [21]): 0
- Foxtail, Giant plant response rating (giant foxtail [6]; [22]): 0
- Plant response rating, Foxtail, Giant (giant foxtail [7]; [15]): 10
- Plant response rating, Foxtail, Giant (giant foxtail [7]; [16]): 0
- Foxtail, Giant plant response rating (giant foxtail [7]; [17]): 0
- Plant response rating, Foxtail, Giant (giant foxtail [7]; [18]): 0
- Morningglory plant response rating (morningglory [8]; [19]): 0
- Plant response rating, Morningglory (morningglory [8]; [20]): 0
- Morningglory plant response rating (morningglory [8]; [21]): 0
- Morningglory plant response rating (morningglory [8]; [22]): 0
- Plant response rating, Wheat (wheat; [23]): 0
- Wheat plant response rating (wheat; [24]): 0
- Plant response rating, Oat, Wild (wild oat; [23]): 0
- Oat, Wild plant response rating (wild oat; [24]): 0
- Rice plant response rating (rice [9]): 0
- Plant response rating, Blackgrass (blackgrass; [23]): 0
- Blackgrass plant response rating (blackgrass; [24]): 0
- Plant response rating, Rice (rice [10]; 500 g ai/ha, visual rating 0-100, 0 no effect, 100 complete control): 0
- Plant response rating, Rice (rice [10]; 125 g ai/ha, 0 to 100 scale, 0 is no effect, 100 is complete control): 0
- Sedge, Umbrella plant response rating [11]: 0
- Barnyardgrass plant response rating (barnyardgrass [12]; [19]): 0
- Plant response rating, Barnyardgrass (barnyardgrass [12]; [20]): 0
- Barnyardgrass plant response rating (barnyardgrass [12]; [21]): 0
- Barnyardgrass plant response rating (barnyardgrass [12]; [22]): 0
- Velvetleaf plant response rating (velvetleaf [13]; [19]): 0
- Plant response rating, Velvetleaf (velvetleaf [13]; [20]): 0
- Velvetleaf plant response rating (velvetleaf [13]; [21]): 0
- Velvetleaf plant response rating (velvetleaf [13]; Preemergence, 2000 g ai/ha, visual rating, 0 to 100 scale (0 no effect, 100 complete control)): 0
- Plant response rating, Crabgrass, Large (large crabgrass [14]; [15]): 10
- Plant response rating, Crabgrass, Large (large crabgrass [14]; [16]): 10
- Crabgrass, Large plant response rating (large crabgrass [14]; [17]): 0
- Plant response rating, Crabgrass, Large (large crabgrass [14]; [18]): 0
- Plant response rating, Pigweed (pigweed; [15]): 0
- Plant response rating, Pigweed (pigweed; [16]): 10
- Pigweed plant response rating (pigweed; [17]): 0
- Plant response rating, Pigweed (pigweed; [18]): 0
- Pigweed plant response rating (redroot pigweed; [19]): 0
- Plant response rating, Pigweed (redroot pigweed; [20]): 0
- Pigweed plant response rating (redroot pigweed; [21]): 0
- Pigweed plant response rating (redroot pigweed; [22]): 35
